Results on one compound are retold here after patent EP2823816A1, “Inhibitors of Neuropilin and use thereof for the treatment of Neuropilin-related diseases” (Tragex Pharma, priority 2013, dated 2015).

Test [1] deals with MDA-MB-231 + control shRNA. In words: Proliferation assay in shRNA-transfected cells. Format: cell-based. The following applies: Homo sapiens; inhibition of proliferation; clone MDA-MB-231 + control shRNA. The text has this:
(§1) The cell proliferation WST-1 assay is a colorimetric assay for the quantification of cell proliferation and viability, based on the enzymatic cleavage of the tetrazolium salt WST-1 added to the culture medium, to a water soluble colored formazan dye, detected by absorbance at 450 nm, by mitochondrial succinate-tetrazoliumreductase in viable cells. An augmentation in enzyme activity will then lead to an increase in the amount of formazan dye formed, which directly correlates to the number of metabolically active cells in the culture.
(§2) After an incubation period of 72 h, at day 4, were prepared the 19 mL medium with reagent WST-1 1mL ([…]). The medium was removed from the 96 microplate and 200 µL of solution WST-1/medium were added for each well. The cells were incubated at 37°C in a humidified atmosphere of 5% CO2 for 1h30 and the absorbance at 450-655 nm was measured by Microplate Manager 5.2 (Bio-Rad).
The effect of compound 1 of the invention on cell proliferation was tested according to the proliferation assay hereinabove described, in MDA-MB-231 cancer cells transfected with shRNA directed to NRP1 or NRP2 or with control shRNA.

The target in the next test is T1, Neuropilin-1 (NRP-1) (Homo sapiens, UniProt O14786).
T1 construct: purchased R&D Systems, UK 3870-N1-025
T1 sequence (O14786 22-644 isoform O14786-2 limits assumed): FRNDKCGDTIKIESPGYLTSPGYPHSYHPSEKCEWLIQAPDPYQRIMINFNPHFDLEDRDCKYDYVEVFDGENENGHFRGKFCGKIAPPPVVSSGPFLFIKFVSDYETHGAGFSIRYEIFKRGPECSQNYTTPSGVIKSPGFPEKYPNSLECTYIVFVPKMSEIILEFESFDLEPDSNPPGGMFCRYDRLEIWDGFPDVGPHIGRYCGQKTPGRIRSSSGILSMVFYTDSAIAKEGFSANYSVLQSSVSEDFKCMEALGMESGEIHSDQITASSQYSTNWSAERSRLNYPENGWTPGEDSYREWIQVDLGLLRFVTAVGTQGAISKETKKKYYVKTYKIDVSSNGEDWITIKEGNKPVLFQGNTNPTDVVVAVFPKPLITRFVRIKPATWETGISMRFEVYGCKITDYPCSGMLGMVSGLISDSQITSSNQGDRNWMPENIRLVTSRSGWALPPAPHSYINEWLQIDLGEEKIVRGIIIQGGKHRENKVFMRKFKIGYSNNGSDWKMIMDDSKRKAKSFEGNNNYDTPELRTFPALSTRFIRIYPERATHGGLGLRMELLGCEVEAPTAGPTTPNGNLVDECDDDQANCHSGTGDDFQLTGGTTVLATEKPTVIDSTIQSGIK
In words: ELISA, inhibition of VEGF binding to coated receptor. Particulars: VEGF-A165b / NRP-1; compound at 10 µM; read-out: Percent of binding inhibition (± SD). Here is the method: (§3) Elisa test was performed covering a 96-well microplate (BD Biosciences, France, cat n° 353046) surface with 100 µL of 1X PBS, pH 7.4 with Ca^2+ and Mg^2+, (Lonza, France, cat n° 17-513F/12) solution containing 0.2 µg/mL of VEGF-R1 (R&D Systems, UK, cat n° 321-FL-050/CF) or 2 µg/mL of NRP-1 (R&D Systems, UK, cat n° 3870-N1-025). The plate was sealed and incubated overnight at 4°C. After 3 washes with 200 µL of 1X PBS 0.5% (v/v) Tween 20 (Sigma, France, cat n° 34078) (Buffer A), the plate was blocked by adding 200 µL of 1× PBS with 0.5% (w/v) BSA (Eurobio, France, cat n° GAUBSA01-65) and agitated at 37°C for 2 h. […] Luminescence was quantified with an EnVision™ 2101 Multilabel reader (Perkin Elmer, USA) and the data analyzed by Wallac Envision manager software. […] Non-specific binding is defined as the signal measured in the absence of receptor coated on the microplate. The specific binding was calculated as the difference between total binding and non-specific binding. The percentage of inhibition was calculated as following: Inhibition % = 100 × ((Signal measured-non specific binding signal))/((Max binding signal obtained without inhibitor-non specific binding signal without receptor)) [formula]
Background: In an ELISA, binding on a coated surface is turned into a signal by an enzyme label.

Another test concerns the target T2, VEGF-R1 (Homo sapiens, UniProt P17948).
T2 construct: purchased R&D Systems, UK 321-FL-050/CF
Described as above. Particulars: VEGF-A165b / VEGF-R1; compound at 10 µM; read-out: Percent of binding inhibition (± SD). The procedure:
as §3

The next test relates to HeLa. In words: WST-1 proliferation / cytotoxic test. Format: cell-based. Particulars: Homo sapiens, Cervical, wst-1 cytotoxic test, 72 h. Here is the method:
(§4) After observation of cells under the microscope, old media were removed and the adherent cells washed gently twice with PBS (Phosphate Buffer Saline, -Ca^2+, -Mg^2+, Lonza cat n°: 17-512F/12). All cells were detached with 3 ml of trypsin/EDTA (chelator of calcium and magnesium ions) (Lonza), incubated for 5 min at 37°C, and examined using a microscope to ensure that the cells were detached and floating. Then, 3 ml TNS (Trypsin Neutralizing Solution, Lonza, France, cat n° CC-5002) or of culture medium were added to inactivate the trypsin, and the cell suspension was transferred in a falcon tube and centrifuged for 7 min at 1400 rpm. The supernatant was removed and the cell pellet resuspended in […] of culture medium. 50 µL of this solution were transferred in 20 µL of isotonic solution and the cells were counted by count cellular (Beckman Coulter). At day 0, 200 µL of cellular suspension (3.10^3 cells/well for the HUVEC cells, breast cancer cells (MDA-MB-231 1.10^4 cells/well, MDA-MB-468 2.10^4 cells/well,); cervical cancer cells (HeLa 5.000 cells/well); colon cancer cells (HCT-116 5.10^3 cells/well, HCT-29 1.1.10^4 cells/well); pancreas cancer cells (Panc-10.5 1.5.10^4 cells/well); brain cancer cells (U87 5.10^3 cells/well, SH-SYSY 8.10^4 cells/well); Lung cancer cells (A 549 1.10^4 cells/well, NCI-H460 1.10^4 cells/well); fibrosarcoma cells (HT 1080 8.10^3 cells/well); Burkitt's lymphoma cells (DAUDI 3.10^4 cells/well); acute lymphoblastic leukemia cells (CEM 3.10^4 cells/well); chronic myeloid leukemia cells (ERY 5.10^4 cells/well); mantle cell lymphoma (GRANTA 1.10^5 cells/well); B lymphoma cells (VAL 1.10^5 cells/well)) were then plated on 96 well plates and incubated at 37°C in a humidified atmosphere of 5% CO2 for 24 h.
(§5) At day 1, the compound 1 of the invention was added at increasing concentrations (0.1 - 10 µM) in the wells and plates were incubated at 37°C in a humidified atmosphere of 5% CO2 for 72 h.
as §1, §2
In general terms: Tetrazolium dyes change colour on reduction, which living cells bring about.

The next test has as its system Granta-519. The test is described as follows: WST-1 proliferation / cytotoxic test. Format: cell-based. Particulars: Homo sapiens, Mantle cell lymphoma, wst-1 cytotoxic test, 72 h. The procedure:
as §4, §5, §1, §2

Another test has as its system SH-SY5Y. The test is described as follows: WST-1 proliferation / cytotoxic test. Format: cell-based. Particulars: Homo sapiens, Brain, wst-1 cytotoxic test, 72 h. The procedure:
as §4, §5, §1, §2

The subject of a further test is Panc-10.5. In words: WST-1 proliferation / cytotoxic test. Format: cell-based. The following applies: Homo sapiens, Pancreas, wst-1 cytotoxic test, 72 h. The procedure:
as §4, §5, §1, §2

Another test has as its system DAUDI. The test is described as follows: WST-1 proliferation / cytotoxic test. Format: cell-based. Particulars: Homo sapiens, Burkitt's lymphoma, wst-1 cytotoxic test, 72 h. The procedure: as §4, §5, §1, §2

T2 sequence (P17948 with tags, fused parts or gaps limits assumed): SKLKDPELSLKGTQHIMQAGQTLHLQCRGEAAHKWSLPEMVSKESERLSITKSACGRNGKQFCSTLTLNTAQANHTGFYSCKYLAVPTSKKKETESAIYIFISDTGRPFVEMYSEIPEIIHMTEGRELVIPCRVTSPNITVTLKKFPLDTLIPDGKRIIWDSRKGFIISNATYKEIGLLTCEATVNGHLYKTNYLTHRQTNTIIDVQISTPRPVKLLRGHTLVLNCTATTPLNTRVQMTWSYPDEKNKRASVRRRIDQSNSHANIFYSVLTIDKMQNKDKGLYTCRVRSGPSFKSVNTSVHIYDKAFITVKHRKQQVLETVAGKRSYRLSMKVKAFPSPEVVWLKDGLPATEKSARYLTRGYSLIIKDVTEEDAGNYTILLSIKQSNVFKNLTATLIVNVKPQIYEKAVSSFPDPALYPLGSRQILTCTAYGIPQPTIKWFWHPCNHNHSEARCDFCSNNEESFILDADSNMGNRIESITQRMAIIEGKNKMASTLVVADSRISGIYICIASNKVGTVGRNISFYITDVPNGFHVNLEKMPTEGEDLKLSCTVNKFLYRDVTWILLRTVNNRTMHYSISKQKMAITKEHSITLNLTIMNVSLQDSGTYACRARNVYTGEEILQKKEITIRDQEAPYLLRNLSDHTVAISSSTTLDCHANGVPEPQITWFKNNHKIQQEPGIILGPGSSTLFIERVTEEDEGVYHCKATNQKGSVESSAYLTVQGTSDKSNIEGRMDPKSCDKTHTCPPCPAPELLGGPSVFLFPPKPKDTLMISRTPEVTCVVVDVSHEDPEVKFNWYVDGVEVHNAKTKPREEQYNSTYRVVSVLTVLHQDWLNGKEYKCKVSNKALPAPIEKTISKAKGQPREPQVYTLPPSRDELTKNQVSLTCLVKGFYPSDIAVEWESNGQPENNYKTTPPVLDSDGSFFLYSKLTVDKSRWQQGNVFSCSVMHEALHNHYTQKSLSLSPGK

In the case of `CCOc1ccccc1NC(=O)c1ccc(C)c(S(=O)(=O)Nc2ccc(C)cc2)c1` [Compound 1, N-(2-ethoxyphenyl)-4-methyl-3-(N-(p-tolyl)sulfamoyl)benzamide], the concentration for half-maximal inhibition (IC50) came out at 800 ± 50 nM in test [1]; 200 ± 60 nM in the test with HeLa; 500 ± 70 nM in the test with Granta-519; 100 ± 20 nM with SH-SY5Y; 500 ± 40 nM in the test with Panc-10.5; 500 ± 20 nM with DAUDI. In addition, the inhibition at 10 µM at Neuropilin-1 (NRP-1) turned out to be 32 ± 3.2%; at VEGF-R1, 23 ± 2.2%.

For orientation: IC50 means the concentration needed to halve the response being measured. The term inhibition denotes the change of the read-out against control, counted positive when it falls.
